{"source": "ChEMBL document CHEMBL3885881", "about": "“DrugMatrix”", "species_on_record": "Rattus norvegicus", "test": "DrugMatrix - Regimen: Daily Repeat", "assay_type": "toxicity, organism-based, Sprague-Dawley", "parameters": "regimen Daily Repeat, gender Male, age 6-8 weeks", "conditions": "in vivo, sc, 120 h, route subcutaneous, time 5 day, vehicle 100 % SALINE; for ABSOLUTE BASOPHIL / ABSOLUTE EOSINOPHIL / ABSOLUTE LYMPHOCYTE / ABSOLUTE MONOCYTE / ABSOLUTE SEGMENTED NEUTROPHIL / BASOPHIL / EOSINOPHIL / ERYTHROCYTE COUNT / HEMATOCRIT / HEMOGLOBIN / LEUKOCYTE COUNT / LYMPHOCYTE / MEAN CORPUSCULAR HEMOGLOBIN / MEAN CORPUSCULAR HEMOGLOBIN CONCENTRATION / MEAN CORPUSCULAR VOLUME / MONOCYTE / NEUTROPHIL / NUCLEATED RED BLOOD CELLS / PLATELET COUNT: tissue Blood", "key": {"[1]": {"conditions": "0 mg/kg, tissue Plasma, dose level Control"}}, "data": [{"smiles": "CC(N)Cc1c[nH]c2ccc(OCc3cccs3)cc12", "note": "(configuration not stated) [BW-723C86]", "values": [{"measurement": "ABSOLUTE BASOPHIL", "setting": "0 mg/kg, dose level Control", "value": 0, "unit": "CELLS/uL"}, {"measurement": "ABSOLUTE EOSINOPHIL", "setting": "0 mg/kg, dose level Control", "value": 0, "unit": "CELLS/uL"}, {"measurement": "ABSOLUTE LYMPHOCYTE", "setting": "0 mg/kg, dose level Control", "value": 5956.67, "unit": "CELLS/uL"}, {"measurement": "ABSOLUTE MONOCYTE", "setting": "0 mg/kg, dose level Control", "value": 0, "unit": "CELLS/uL"}, {"measurement": "ABSOLUTE SEGMENTED NEUTROPHIL", "setting": "0 mg/kg, dose level Control", "value": 510, "unit": "CELLS/uL"}, {"measurement": "BASOPHIL", "setting": "0 mg/kg, dose level Control", "value": 0, "unit": "%"}, {"measurement": "EOSINOPHIL", "setting": "0 mg/kg, dose level Control", "value": 0, "unit": "%"}, {"measurement": "ERYTHROCYTE COUNT", "setting": "0 mg/kg, dose level Control", "value": 5.39, "unit": "x10E6/uL"}, {"measurement": "HEMATOCRIT", "setting": "0 mg/kg, dose level Control", "value": 32.5, "unit": "%"}, {"measurement": "HEMOGLOBIN", "setting": "0 mg/kg, dose level Control", "value": 12.47, "unit": "G/DL"}, {"measurement": "LEUKOCYTE COUNT", "setting": "0 mg/kg, dose level Control", "value": 6.47, "unit": "x10E3/uL"}, {"measurement": "LYMPHOCYTE", "setting": "0 mg/kg, dose level Control", "value": 92, "unit": "%"}, {"measurement": "MEAN CORPUSCULAR HEMOGLOBIN", "setting": "0 mg/kg, dose level Control", "value": 23.13, "unit": "pg"}, {"measurement": "MEAN CORPUSCULAR HEMOGLOBIN CONCENTRATION", "setting": "0 mg/kg, dose level Control", "value": 38.37, "unit": "G/DL"}, {"measurement": "MEAN CORPUSCULAR VOLUME", "setting": "0 mg/kg, dose level Control", "value": 60.3, "unit": "fL"}, {"measurement": "MONOCYTE", "setting": "0 mg/kg, dose level Control", "value": 0, "unit": "%"}, {"measurement": "NEUTROPHIL", "setting": "0 mg/kg, dose level Control", "value": 8, "unit": "%"}, {"measurement": "NUCLEATED RED BLOOD CELLS", "setting": "0 mg/kg, dose level Control", "value": "0.33 /100WBC"}, {"measurement": "PLATELET COUNT", "setting": "0 mg/kg, dose level Control", "value": 888, "unit": "x10E3/uL"}, {"measurement": "ALANINE AMINOTRANSFERASE", "setting": "[1]", "value": 43.67, "unit": "u/L"}, {"measurement": "ALBUMIN", "setting": "[1]", "value": 4.37, "unit": "G/DL"}, {"measurement": "ALKALINE PHOSPHATASE", "setting": "[1]", "value": 356, "unit": "u/L"}, {"measurement": "ASPARTATE AMINOTRANSFERASE", "setting": "[1]", "value": 74, "unit": "u/L"}, {"measurement": "BLOOD UREA NITROGEN", "setting": "[1]", "value": 11, "unit": "mg/dL"}, {"measurement": "CARBON DIOXIDE", "setting": "[1]", "value": 32.33, "unit": "mmol/L"}, {"measurement": "CHLORIDE", "setting": "[1]", "value": 103.33, "unit": "MEQ/L"}, {"measurement": "CHOLESTEROL", "setting": "[1]", "value": 70.67, "unit": "mg/dL"}, {"measurement": "CREATINE PHOSPHOKINASE", "setting": "[1]", "value": 195.33, "unit": "u/L"}, {"measurement": "CREATININE", "setting": "[1]", "value": 0.16, "unit": "mg/dL"}, {"measurement": "GLUCOSE", "setting": "[1]", "value": 161.67, "unit": "mg/dL"}, {"measurement": "LACTATE DEHYDROGENASE", "setting": "[1]", "value": 84, "unit": "u/L"}, {"measurement": "LIPASE", "setting": "[1]", "value": 9, "unit": "u/L"}, {"measurement": "PHOSPHORUS", "setting": "[1]", "value": 12.57, "unit": "mg/dL"}, {"measurement": "POTASSIUM", "setting": "[1]", "value": 6.87, "unit": "MEQ/L"}, {"measurement": "SODIUM", "setting": "[1]", "value": 147.6, "unit": "MEQ/L"}, {"measurement": "TOTAL BILIRUBIN", "setting": "[1]", "value": 0.13, "unit": "mg/dL"}, {"measurement": "TOTAL PROTEIN", "setting": "[1]", "value": 6.27, "unit": "G/DL"}, {"measurement": "URIC ACID", "setting": "[1]", "value": 1.67, "unit": "mg/dL"}, {"measurement": "ABSOLUTE BASOPHIL", "setting": "10 mg/kg, dose level Low", "value": 0, "unit": "CELLS/uL"}, {"measurement": "ABSOLUTE EOSINOPHIL", "setting": "10 mg/kg, dose level Low", "value": 0, "unit": "CELLS/uL"}, {"measurement": "ABSOLUTE LYMPHOCYTE", "setting": "10 mg/kg, dose level Low", "value": 5627, "unit": "CELLS/uL"}, {"measurement": "ABSOLUTE MONOCYTE", "setting": "10 mg/kg, dose level Low", "value": 73.33, "unit": "CELLS/uL"}, {"measurement": "ABSOLUTE SEGMENTED NEUTROPHIL", "setting": "10 mg/kg, dose level Low", "value": 866.33, "unit": "CELLS/uL"}, {"measurement": "BASOPHIL", "setting": "10 mg/kg, dose level Low", "value": 0, "unit": "%"}, {"measurement": "EOSINOPHIL", "setting": "10 mg/kg, dose level Low", "value": 0, "unit": "%"}, {"measurement": "ERYTHROCYTE COUNT", "setting": "10 mg/kg, dose level Low", "value": 5.18, "unit": "x10E6/uL"}, {"measurement": "HEMATOCRIT", "setting": "10 mg/kg, dose level Low", "value": 31.03, "unit": "%"}, {"measurement": "HEMOGLOBIN", "setting": "10 mg/kg, dose level Low", "value": 12, "unit": "G/DL"}, {"measurement": "LEUKOCYTE COUNT", "setting": "10 mg/kg, dose level Low", "value": 6.57, "unit": "x10E3/uL"}, {"measurement": "LYMPHOCYTE", "setting": "10 mg/kg, dose level Low", "value": 85.33, "unit": "%"}, {"measurement": "MEAN CORPUSCULAR HEMOGLOBIN", "setting": "10 mg/kg, dose level Low", "value": 23.2, "unit": "pg"}, {"measurement": "MEAN CORPUSCULAR HEMOGLOBIN CONCENTRATION", "setting": "10 mg/kg, dose level Low", "value": 38.67, "unit": "G/DL"}, {"measurement": "MEAN CORPUSCULAR VOLUME", "setting": "10 mg/kg, dose level Low", "value": 60, "unit": "fL"}, {"measurement": "MONOCYTE", "setting": "10 mg/kg, dose level Low", "value": 1, "unit": "%"}, {"measurement": "NEUTROPHIL", "setting": "10 mg/kg, dose level Low", "value": 13.67, "unit": "%"}, {"measurement": "NUCLEATED RED BLOOD CELLS", "setting": "10 mg/kg, dose level Low", "value": "0.33 /100WBC"}, {"measurement": "PLATELET COUNT", "setting": "10 mg/kg, dose level Low", "value": 1156.33, "unit": "x10E3/uL"}]}]}
